Laboratory results taken from patent US12473301B2, “Isoquinoline compounds for the treatment of cancer” (Genentech, Inc., priority 2018, dated 2025).

The molecules below were run against HPK1 (Homo sapiens (Human), UniProt Q92918, S171E/T165E) (assay: HPK1-FL HTRF Enzymatic Assay ("HTRF")). Conditions: HPK full length, ATP 1 mM.
Type: biochemical
Description: HPK1-FL HTRF Enzymatic Assay (“HTRF”)
HPK-FL enzyme phosphorylates Biotin-SLP-76 substrate in the presence of ATP at 1 mM and varying concentrations of test compound. Product is detected by FRET using Eu-anti-pSLP76 Ab and SA-XL665. Also see www.cisbio.com/HTRF for additional HTRF technology information.
Instrumentation: Echo555 compound dispenser; Agilent Bravo; Perkin Elmer Envision.
To a 384 well Proxiplate with 80 nL compound or DMSO spotted on was added 4 μl/well kinase mix. The mixture was preincubated for 30 minutes and then 4 μl/well substrate mix was added. The solution was incubated for 60 min and then 4 μl/well detection mix was added. The solution was incubated for another 60 min. The plates were then loaded onto a
Perkin Elmer Envision and the TR-FRET signal was measured at […] and 665 nm. A ratio of 665/620 was used to calculate the % activity at each concentration of compound.

Sequence of HPK1 (Q92918 whole entry T165E/S171E): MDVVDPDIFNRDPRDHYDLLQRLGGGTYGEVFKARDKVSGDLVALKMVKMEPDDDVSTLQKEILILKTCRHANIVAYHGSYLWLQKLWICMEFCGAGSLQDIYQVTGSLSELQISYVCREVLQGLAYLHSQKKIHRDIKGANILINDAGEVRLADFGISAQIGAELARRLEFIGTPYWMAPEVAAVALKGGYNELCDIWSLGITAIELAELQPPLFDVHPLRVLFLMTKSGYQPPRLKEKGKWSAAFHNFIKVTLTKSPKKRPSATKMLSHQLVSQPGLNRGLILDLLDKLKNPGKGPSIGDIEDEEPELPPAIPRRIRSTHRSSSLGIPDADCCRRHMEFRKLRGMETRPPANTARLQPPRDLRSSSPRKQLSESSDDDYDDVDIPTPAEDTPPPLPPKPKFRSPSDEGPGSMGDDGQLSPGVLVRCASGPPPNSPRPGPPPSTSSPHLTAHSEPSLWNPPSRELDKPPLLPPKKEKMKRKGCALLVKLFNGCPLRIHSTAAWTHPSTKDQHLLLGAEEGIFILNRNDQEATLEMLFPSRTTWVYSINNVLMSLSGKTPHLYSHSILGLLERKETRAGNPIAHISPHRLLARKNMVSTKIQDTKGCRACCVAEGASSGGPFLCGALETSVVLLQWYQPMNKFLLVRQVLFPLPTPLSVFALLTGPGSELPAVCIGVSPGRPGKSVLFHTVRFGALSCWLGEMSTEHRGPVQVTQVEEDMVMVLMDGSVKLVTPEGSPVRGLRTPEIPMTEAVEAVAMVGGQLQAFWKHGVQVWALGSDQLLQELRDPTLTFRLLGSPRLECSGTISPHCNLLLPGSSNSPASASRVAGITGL

Ki [nM]	Compound
2.4	Cc1c(-c2cc3cc(NC(=O)OCC4(F)CCNC4)ncc3cc2F)cnc2c1NCCO2 (racemic) [Compound 106, (3-Fluoropyrrolidin-3-yl)methyl (7-fluoro-6-(8-methyl-2,3-dihydro-1H-pyrido[2,3-b][1,4]oxazin-7-yl)isoquinolin-3-yl)carbamate]
2.1	Cc1c(-c2cc3cc(NC(=O)OCC4CCNC4)ncc3cc2F)cnc2c1NCCO2 (racemic) [Compound 107, Pyrrolidin-3-ylmethyl (7-fluoro-6-(8-methyl-2,3-dihydro-1H-pyrido[2,3-b][1,4]oxazin-7-yl)isoquinolin-3-yl)carbamate]
4	Cc1c(-c2cc3cc(NC(=O)OC4COC5(CCNC5)C4)ncc3cc2F)cnc2c1NCCO2 (racemic) [Compound 108, 1-Oxa-7-azaspiro[4.4]nonan-3-yl (7-fluoro-6-(8-methyl-2,3-dihydro-1H-pyrido[2,3-b][1,4]oxazin-7-yl)isoquinolin-3-yl)carbamate]
29	Cc1c(-c2cc3cc(NC(=O)OCC(C)N)ncc3cc2F)cnc2c1NCCO2 (racemic) [Compound 110, 2-Aminopropyl (7-fluoro-6-(8-methyl-2,3-dihydro-1H-pyrido[2,3-b][1,4]oxazin-7-yl)isoquinolin-3-yl)carbamate]
1.5	COC(C)CCOC(=O)Nc1cc2cc(-c3cnc4c(c3C)NCCO4)c(F)cc2cn1 (racemic) [Compound 114, 3-Methoxybutyl (7-fluoro-6-(8-methyl-2,3-dihydro-1H-pyrido[2,3-b][1,4]oxazin-7-yl)isoquinolin-3-yl)carbamate]
7.5	Cc1c(-c2cc3cc(NC(=O)OCC4CCCCO4)ncc3cc2F)cnc2c1NCCO2 (racemic) [Compound 116, (Tetrahydro-2H-pyran-2-yl)methyl (7-fluoro-6-(8-methyl-2,3-dihydro-1H-pyrido[2,3-b][1,4]oxazin-7-yl)isoquinolin-3-yl)carbamate]
24	Cc1c(-c2cc3cc(NC(=O)OCC45CC4CCN5)ncc3cc2F)cnc2c1NCCO2 (racemic) [Compound 122, (2-Azabicyclo[3.1.0]hexan-1-yl)methyl (7-fluoro-6-(8-methyl-2,3-dihydro-1H-pyrido[2,3-b][1,4]oxazin-7-yl)isoquinolin-3-yl)carbamate]
7.5	Cc1c(-c2cc3cc(NC(=O)OC4CCC45CCNC5)ncc3cc2F)cnc2c1NCCO2 (racemic) [Compound 123, 6-Azaspiro[3.4]octan-1-yl (7-fluoro-6-(8-methyl-2,3-dihydro-1H-pyrido[2,3-b][1,4]oxazin-7-yl)isoquinolin-3-yl)carbamate]
492	Cc1c(-c2cc3cc(NC(=O)O[C@H]4CCCC[C@@H]4C#N)ncc3c(Cl)c2F)cnc2c1NCCO2 (single isomer, unassigned) [Compound 126a]
0.945	Cc1c(-c2cc3cc(NC(=O)O[C@@H]4CCCC[C@H]4C#N)ncc3c(Cl)c2F)cnc2c1NCCO2 (single isomer, unassigned) [Compound 126b]
0.805	Cc1c(-c2cc3cc(NC(=O)O[C@@H]4CCC[C@H]4C#N)ncc3c(Cl)c2F)cnc2c1NCCO2 (single isomer, unassigned) [Compound 127a]
3.75	Cc1c(-c2cc3cc(NC(=O)O[C@H]4CCC[C@@H]4C#N)ncc3c(Cl)c2F)cnc2c1NCCO2 (single isomer, unassigned) [Compound 127b]
2.5	Cc1c(-c2cc3cc(NC(=O)O[C@@H]4CCC[C@H]4C#N)ncc3cc2F)cnc2c1NCCO2 (single isomer, unassigned) [Compound 128a]
0.78	Cc1c(-c2cc3cc(NC(=O)O[C@H]4CCC[C@@H]4C#N)ncc3cc2F)cnc2c1NCCO2 (single isomer, unassigned) [Compound 128b]
0.95	Cc1c(-c2cc3cc(NC(=O)NC(C)c4cnn(C)c4)ncc3cc2F)cnc2c1NCCO2 (single isomer, unassigned) [Compound 201a]
10	Cc1c(-c2cc3cc(NC(=O)NC(C)c4cnn(C)c4)ncc3cc2F)cnc2c1NCCO2 (single isomer, unassigned) [Compound 201b]
4	Cc1c(-c2cc3cc(NC(=O)NC(C)CC#N)ncc3cc2F)cnc2c1NCCO2 (single isomer, unassigned) [Compound 203a]
1.1	Cc1c(-c2cc3cc(NC(=O)NC(C)CC#N)ncc3cc2F)cnc2c1NCCO2 (single isomer, unassigned) [Compound 203b]
0.88	Cc1c(-c2cc3cc(NC(=O)NC4CCOC4)ncc3cc2F)cnc2c1NCCO2 (single isomer, unassigned) [Compound 206a]

Ki [nM]	Compound
2.5	Cc1c(-c2cc3cc(NC(=O)NC4CCOC4)ncc3cc2F)cnc2c1NCCO2 (single isomer, unassigned) [Compound 206b]
0.9	CC[C@@H]1[C@@H](C(=O)Nc2cc3cc(-c4cnc5c(c4C)NCCO5)c(F)cc3cn2)[C@@H]1c1cnn(C)c1 (single isomer, unassigned) [Compound 301a]
8	CC[C@H]1[C@H](C(=O)Nc2cc3cc(-c4cnc5c(c4C)NCCO5)c(F)cc3cn2)[C@H]1c1cnn(C)c1 (single isomer, unassigned) [Compound 301b]
1.8	CC[C@H]1[C@@H](C(=O)Nc2cc3cc(-c4cnc5c(c4C)NCCO5)c(F)cc3cn2)[C@@H]1c1cnn(C)c1 (single isomer, unassigned) [Compound 301d]
2.7	Cc1c(-c2cc3cc(NC(=O)OCC4CC4)ncc3cc2F)cnc2c1NCCO2 [Compound 101, Cyclopropylmethyl (7-fluoro-6-(8-methyl-2,3-dihydro-1H-pyrido[2,3-b][1,4]oxazin-7-yl)isoquinolin-3-yl)carbamate]
45	Cc1c(N)cncc1-c1cc2cc(NC(=O)OCC3CC3)ncc2cc1F [Compound 102, Cyclopropylmethyl (6-(5-amino-4-methylpyridin-3-yl)-7-fluoroisoquinolin-3-yl)carbamate]
5	Cc1c(-c2cc3cc(NC(=O)OC4CCOCC4)ncc3cc2F)cnc2c1NCCO2 [Compound 103, Tetrahydro-2H-pyran-4-yl (7-fluoro-6-(8-methyl-2,3-dihydro-1H-pyrido[2,3-b][1,4]oxazin-7-yl)isoquinolin-3-yl)carbamate]
2.9	CC(=O)N1CC(OC(=O)Nc2cc3cc(-c4cnc5c(c4C)NCCO5)c(F)cc3cn2)C1 [Compound 104, 1-Acetylazetidin-3-yl (7-fluoro-6-(8-methyl-2,3-dihydro-1H-pyrido[2,3-b][1,4]oxazin-7-yl)isoquinolin-3-yl)carbamate]
0.91	CNC(=O)N1CC(OC(=O)Nc2cc3cc(-c4cnc5c(c4C)NCCO5)c(F)cc3cn2)C1 [Compound 105, 1-(Methylcarbamoyl)azetidin-3-yl (7-fluoro-6-(8-methyl-2,3-dihydro-1H-pyrido[2,3-b][1,4]oxazin-7-yl)isoquinolin-3-yl)carbamate]
25	Cc1c(-c2cc3cc(NC(=O)OC[C@H]4CCCN4)ncc3cc2F)cnc2c1NCCO2 [Compound 109a, (R)-Pyrrolidin-2-ylmethyl (7-fluoro-6-(8-methyl-2,3-dihydro-1H-pyrido[2,3-b][1,4]oxazin-7-yl)isoquinolin-3-yl)carbamate]
4	Cc1c(-c2cc3cc(NC(=O)OCC4(F)CCNCC4)ncc3cc2F)cnc2c1NCCO2 [Compound 111, (4-Fluoropiperidin-4-yl)methyl (7-fluoro-6-(8-methyl-2,3-dihydro-1H-pyrido[2,3-b][1,4]oxazin-7-yl)isoquinolin-3-yl)carbamate]
32	Cc1c(-c2cc3cc(NC(=O)OCCN)ncc3cc2F)cnc2c1NCCO2 [Compound 112, 2-Aminoethyl (7-fluoro-6-(8-methyl-2,3-dihydro-1H-pyrido[2,3-b][1,4]oxazin-7-yl)isoquinolin-3-yl)carbamate]
6.2	Cc1c(-c2cc3cc(NC(=O)OCCS(C)(=O)=O)ncc3cc2F)cnc2c1NCCO2 [Compound 117, 2-(Methylsulfonyl)ethyl (7-fluoro-6-(8-methyl-2,3-dihydro-1H-pyrido[2,3-b][1,4]oxazin-7-yl)isoquinolin-3-yl)carbamate]
205	Cc1c(-c2cc3cc(NC(=O)OCC(F)(F)F)ncc3cc2F)cnc2c1NCCO2 [Compound 118, 2,2,2-Trifluoroethyl (7-fluoro-6-(8-methyl-2,3-dihydro-1H-pyrido[2,3-b][1,4]oxazin-7-yl)isoquinolin-3-yl)carbamate]
9.5	Cc1c(-c2cc3cc(NC(=O)OCCc4ccccn4)ncc3cc2F)cnc2c1NCCO2 [Compound 119, 2-(Pyridin-2-yl)ethyl (7-fluoro-6-(8-methyl-2,3-dihydro-1H-pyrido[2,3-b][1,4]oxazin-7-yl)isoquinolin-3-yl)carbamate]
4.3	Cc1c(-c2cc3cc(NC(=O)OCC(C)(C)C)ncc3cc2F)cnc2c1NCCO2 [Compound 120, Neopentyl (7-fluoro-6-(8-methyl-2,3-dihydro-1H-pyrido[2,3-b][1,4]oxazin-7-yl)isoquinolin-3-yl)carbamate]
8.7	Cc1c(-c2cc3cc(NC(=O)OC4CC5CC4CN5)ncc3cc2F)cnc2c1NCCO2 (stereo not shown) [Compound 121, 2-Azabicyclo[2.2.1]heptan-5-yl (7-fluoro-6-(8-methyl-2,3-dihydro-1H-pyrido[2,3-b][1,4]oxazin-7-yl)isoquinolin-3-yl)carbamate]
0.44	Cc1c(-c2cc3cc(NC(=O)OCCC4C5CNCC45)ncc3cc2F)cnc2c1NCCO2 (stereo not shown) [Compound 124, 2-(3-Azabicyclo[3.1.0]hexan-6-yl)ethyl (7-fluoro-6-(8-methyl-2,3-dihydro-1H-pyrido[2,3-b][1,4]oxazin-7-yl)isoquinolin-3-yl)carbamate]
